Structures can show the parent of a compound that is named as a salt.
Key:
human C1 = assay: Test, Code 026 (C1 inhibitor); assay type: biochemical; conditions: activity in wells, two-fold serial dilution assay; higher well number indicates higher activity
From the text: (§1) An active inhibitor protects C2 from C1 and C4; (ii) Test, Code 035 (C3-C9 inhibitor) -- This test determines the ability of the late components of human complement (C3-C9) to lyse EAC 142 in the presence of appropriate dilutions of the test compound. An active inhibitor protects EAC 142 from lysis by human C3-C9; (iii) Test, Code 036 (C-Shunt inhibitor) -- In this test human erythrocytes rendered fragile are lysed in autologous serum via the shunt pathway activated by cobra venom factor in the presence of appropriate dilutions of the test compound. Inhibition of the shunt pathway results in failure of lysis; (iv) Forssman Vasculitis Test -- Here, the well known complement dependent lesion, Forssman vasculitis, is produced in guinea pigs by intradermal injection of rabbit anti-Forssman antiserum. […]

[1] = test system: late components of human complement (C3-C9); assay: Test, Code 035 (C3-C9 inhibitor), lysis of EAC 142; assay type: cell-based; conditions: activity in wells, two-fold serial dilution assay; higher well number indicates higher activity; N=Negative
From the text: as §1

shunt pathway = assay: Test, Code 036 (C-Shunt inhibitor), lysis of human erythrocytes via shunt pathway activated by cobra venom factor; assay type: cell-based; conditions: activity in wells, two-fold serial dilution assay; higher well number indicates higher activity
From the text: as §1

human serum = conditions: in vitro and in vivo, literature; cited from earlier work
[2] = test system: hereditary angioneurotic edema; conditions: literature; cited from earlier work
whole complement = assay: Complement Level Reduction Test (in vivo activity, guinea pig); conditions: 200 mg/kg
From the text: An active inhibitor protects C2 from C1 and C4; (ii) Test, Code 035 (C3-C9 inhibitor) -- This test determines the ability of the late components of human complement (C3-C9) to lyse EAC 142 in the presence of appropriate dilutions of the test compound. An active inhibitor protects EAC 142 from lysis by human C3-C9; (iii) Test, Code 036 (C-Shunt inhibitor) -- In this test human erythrocytes rendered fragile are lysed in autologous serum via the shunt pathway activated by cobra venom factor in the presence of appropriate dilutions of the test compound. Inhibition of the shunt pathway results in failure of lysis; (iv) Forssman Vasculitis Test -- Here, the well known complement dependent lesion, Forssman vasculitis, is produced in guinea pigs by intradermal injection of rabbit anti-Forssman antiserum. The lesion is measured in terms of diameter, edema and hemorrhage and the extent to which a combined index of these is inhibited by prior intraperitoneal injection of the test compound at 200 mg/kg is then reported, unless otherwise stated; (v) Forssman Shock Test -- Lethal shock is produced in guinea pigs by an i.v. injection of anti-Forssman antiserum and the harmonic mean death time of treated guinea pigs is compared with that of simultaneous controls; (vi) Complement Level Reduction Test -- In this test, the above dosed guinea pigs, or others, are bled for serum and the complement level is determined in undiluted serum by the capillary tube method of U.S. Pat. No. 3,876,376 and compared to undosed control guinea pigs; and (vii) Cap 50 Test -- Here, appropriate amounts of the test compound are added to a pool of guinea pig serum in vitro, after which the undiluted serum capillary tube assay referred to above is run. The concentration of compound inhibiting 50 % is reported.
With reference to Table I, guinea pigs weighing about 300 g were dosed intravenously (i.v.) or intraperitoneally (i.p.) with 200 mg/kg of the test compound dissolved in saline and adjusted to pH 7-8. […] The serum was tested for whole complement using the capillary tube assay. Percent inhibition was calculated by comparison with simultaneous controls. The results appear in Table I together with results of tests, code 026, 035, 036, Cap 50, % inhibition and Forssman shock.

complement system = conditions: literature; cited from earlier work

O=C(O)c1cc(NC(=O)c2cc(NC(=S)Nc3cc(S(=O)(=O)O)cc4cc(S(=O)(=O)O)cc(S(=O)(=O)O)c34)cc(C(=O)Nc3cc(C(=O)O)cc(C(=O)O)c3)c2)cc(C(=O)O)c1 [5,5'-{{5-[2-Thio-3-(3,6,8-trisulfo-1-naphthyl)ureido]-1,3-phenylene}bis(carbonylimino)}diisophthalic acid heptasodium salt]
C1 026 Wells (human C1): +5 Wells | C-Late 035 Wells [1]: N | Shunt Inhibition 036 Wells (shunt pathway): +1 Wells

pentosan-poly-sulfoester
anticomplementary activity, reduction in the total hemolytic complement activity (human serum): anticomplementary activity on human serum both in vitro and in vivo

NC[C@H]1CC[C@H](C(=O)O)CC1 [tranexamic acid]
use in the treatment of hereditary angioneurotic edema [2]: used with success in the treatment of hereditary angioneurotic edema

NCCCCCC(=O)O [epsilon-aminocaproic acid]
use in the treatment of hereditary angioneurotic edema [2]: used with success in the treatment of hereditary angioneurotic edema

O=C(Nc1cc(S(=O)(=O)[O-])cc2cc(S(=O)(=O)[O-])cc(S(=O)(=O)[O-])c12)c1cc(NC(=S)Nc2cc(S(=O)(=O)[O-])cc3cc(S(=O)(=O)[O-])cc(S(=O)(=O)[O-])c23)cc(C(=O)Nc2cc(S(=O)(=O)[O-])cc3cc(S(=O)(=O)[O-])cc(S(=O)(=O)[O-])c23)c1.[Na+].[Na+].[Na+].[Na+].[Na+].[Na+].[Na+].[Na+].[Na+] [8-{3-[3,5-Bis(3,6,8-trisulfo-1-naphthylcarbamoyl)phenyl] -2-thioureido}-1,3,6-naphthalenetrisulfonic acid nonasodium salt]
C-Late 035 Wells [1]: +1 Wells | In Vivo Activity (Guinea Pig) % Inhibition, Intraperitoneal, 30 min (whole complement; i.p., 30 min): -50% | In Vivo Activity (Guinea Pig) % Inhibition, Intraperitoneal, 60 min (whole complement; i.p., 60 min): -57% | In Vivo Activity (Guinea Pig) % Inhibition, Intraperitoneal, 120 min (whole complement; i.p., 120 min): -74% | In Vivo Activity (Guinea Pig) % Inhibition, Intravenous, 2 min (whole complement; i.v., 2 min): -97% | In Vivo Activity (Guinea Pig) % Inhibition, Intravenous, 30 min (whole complement; i.v., 30 min): -79% | In Vivo Activity (Guinea Pig) % Inhibition, Intravenous, 120 min (whole complement; i.v., 120 min): -58%

Nc1ccc2cc(S(=O)(=O)O)cc(O)c2c1N=Nc1ccc(NC(=O)Nc2ccc(N=Nc3c(N)ccc4cc(S(=O)(=O)O)cc(O)c34)c(S(=O)(=O)O)c2)cc1S(=O)(=O)O [chlorazol fast pink, 3,3'-ureylenebis-[6-(2-amino-8-hydroxy-6-sulfo-1-naphthylazo)]benzenesulfonic acid, tetrasodium salt]
anticomplementary effect / complement inhibition (complement system): reported to have an anticomplementary effect

heparin
anticomplementary effect / complement inhibition (complement system): reported to have an anticomplementary effect

Cc1ccc(C(=O)Nc2ccc(S(=O)(=O)O)c3cc(S(=O)(=O)O)cc(S(=O)(=O)O)c23)cc1NC(=O)c1cccc(NC(=O)Nc2cccc(C(=O)Nc3cc(C(=O)Nc4ccc(S(=O)(=O)O)c5cc(S(=O)(=O)O)cc(S(=O)(=O)O)c45)ccc3C)c2)c1 [Suramin]
anticomplementary effect / complement inhibition (complement system): competitive inhibitor of the complement system | use in the treatment of hereditary angioneurotic edema [2]: used with success in the treatment of hereditary angioneurotic edema
